{"source": "ChEMBL document CHEMBL5584334", "about": "“Discovery of a Covalent Inhibitor of Pro-Caspase-1 Zymogen Blocking NLRP3 Inflammasome Activation and Pyroptosis” (J Med Chem, 2024)", "key": {"J774.A1 [1]": {"system": "J774.A1", "experiment": "Inhibition of NLRP3 colocalization in LPS/nigericin stimulated mouse J774.A1 cells by fluorescent staining based assay", "format": "functional, cell-based"}, "[2]": {"system": "Caspase-1 (Homo sapiens), P29466 [C270A]", "sequence (P29466 whole entry C270A)": "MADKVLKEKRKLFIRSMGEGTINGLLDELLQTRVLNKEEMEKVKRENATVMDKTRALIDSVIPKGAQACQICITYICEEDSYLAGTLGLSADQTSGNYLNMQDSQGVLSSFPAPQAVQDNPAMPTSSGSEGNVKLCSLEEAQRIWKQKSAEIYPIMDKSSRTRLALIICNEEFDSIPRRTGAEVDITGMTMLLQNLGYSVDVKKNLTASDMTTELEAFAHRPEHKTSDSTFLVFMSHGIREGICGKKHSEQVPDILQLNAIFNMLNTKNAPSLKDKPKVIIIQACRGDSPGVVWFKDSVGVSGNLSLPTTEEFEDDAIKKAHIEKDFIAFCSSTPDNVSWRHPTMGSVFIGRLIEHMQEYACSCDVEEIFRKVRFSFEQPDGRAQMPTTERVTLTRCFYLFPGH", "experiment": "Binding affinity to recombinant caspase-1 C270A mutant (unknown origin) at 2 uM by SDS-PAGE analysis"}, "J774.A1 [3]": {"system": "J774.A1", "experiment": "Inhibition of NF-kappaB signaling in LPS-stimulated mouse J774.A1 cells at 1 uM preincubated for 30 mins followed by LPS addition and measured after 2 hrs by Western blotting analysis", "format": "cell-based", "settings": "time 2.5 hrs"}, "J774.A1 [4]": {"system": "J774.A1", "experiment": "Downregulation of inhibitor kappa B-alpha phosphorylation in mouse J774.A1 cells at 0.5 to 2 uM preincubated for 30 mins followed by LPS addition and measured after 2 hrs by Western blotting analysis", "format": "functional, cell-based", "settings": "dose 0.5-2 µM, time 2.5 hrs"}, "J774.A1 [5]": {"system": "J774.A1", "experiment": "Binding affinity to pro-caspase 1 in mouse J774.A1 cells assessed as increase in protein stability incubated for 30 mins by CETSA", "format": "cell-based", "settings": "dose 1-100 µM"}, "[6]": {"target": "NACHT, LRR and PYD domains-containing protein 3 (Mus musculus) (UniProt Q8R4B8)", "sequence (Q8R4B8 whole entry, the tested form may be a part)": "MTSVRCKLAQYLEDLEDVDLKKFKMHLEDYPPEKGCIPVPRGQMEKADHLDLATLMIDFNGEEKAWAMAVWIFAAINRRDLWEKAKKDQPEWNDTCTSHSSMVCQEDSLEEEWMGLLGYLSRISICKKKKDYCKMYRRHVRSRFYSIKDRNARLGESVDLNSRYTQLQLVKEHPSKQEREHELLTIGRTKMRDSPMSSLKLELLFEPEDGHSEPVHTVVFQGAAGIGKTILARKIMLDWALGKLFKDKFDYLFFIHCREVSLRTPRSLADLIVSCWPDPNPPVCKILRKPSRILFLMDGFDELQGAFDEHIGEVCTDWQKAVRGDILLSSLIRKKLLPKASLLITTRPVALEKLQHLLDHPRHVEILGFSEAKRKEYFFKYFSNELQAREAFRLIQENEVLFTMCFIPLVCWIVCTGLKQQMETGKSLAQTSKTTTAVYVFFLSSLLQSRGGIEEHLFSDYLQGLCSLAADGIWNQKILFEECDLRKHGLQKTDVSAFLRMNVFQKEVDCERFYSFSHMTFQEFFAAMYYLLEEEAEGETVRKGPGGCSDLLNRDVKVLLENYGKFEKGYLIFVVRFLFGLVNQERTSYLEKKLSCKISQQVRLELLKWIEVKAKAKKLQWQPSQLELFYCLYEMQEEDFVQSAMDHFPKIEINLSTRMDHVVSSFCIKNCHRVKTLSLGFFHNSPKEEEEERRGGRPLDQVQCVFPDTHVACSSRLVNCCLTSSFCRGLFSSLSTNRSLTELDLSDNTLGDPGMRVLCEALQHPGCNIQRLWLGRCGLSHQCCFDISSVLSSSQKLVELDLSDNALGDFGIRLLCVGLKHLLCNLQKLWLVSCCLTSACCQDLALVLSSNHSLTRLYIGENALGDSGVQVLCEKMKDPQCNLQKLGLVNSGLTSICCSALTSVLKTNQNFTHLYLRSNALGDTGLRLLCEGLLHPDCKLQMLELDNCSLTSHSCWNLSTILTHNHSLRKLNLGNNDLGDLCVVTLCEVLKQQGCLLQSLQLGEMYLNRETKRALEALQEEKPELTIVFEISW", "experiment": "Inhibition of NLRP3 inflammasome activation in LPS/MSU stimulated mouse J774.A1 cells assessed as reduction in IL-18 production incubated for 4 hrs by ELISA", "format": "cell-based"}, "Caspase-1 (Homo sapiens) [7]": {"target": "T1, Caspase-1 (Homo sapiens) (UniProt P29466)", "T1 sequence (whole entry)": "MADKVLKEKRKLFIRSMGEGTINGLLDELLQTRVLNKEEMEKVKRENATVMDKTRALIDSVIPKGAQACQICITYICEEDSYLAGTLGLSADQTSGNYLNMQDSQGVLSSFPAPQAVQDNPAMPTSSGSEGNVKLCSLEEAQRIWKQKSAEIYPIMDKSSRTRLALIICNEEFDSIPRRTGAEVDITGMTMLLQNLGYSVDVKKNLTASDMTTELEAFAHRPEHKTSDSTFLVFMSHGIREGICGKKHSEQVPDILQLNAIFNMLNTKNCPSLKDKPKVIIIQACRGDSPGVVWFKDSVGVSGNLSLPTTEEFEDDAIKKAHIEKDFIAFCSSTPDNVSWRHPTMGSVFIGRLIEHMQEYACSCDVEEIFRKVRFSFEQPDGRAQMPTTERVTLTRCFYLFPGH", "experiment": "Inhibition of recombinant human caspase-1 expressed in Escherichia coli BL21 cells assessed as remaining activity at 100 uM using […] as substrate incubated for 30 mins relative to control"}, "J774.A1 [8]": {"system": "J774.A1", "experiment": "Inhibition of pyroptosis in mouse J774.A1 cells assessed as reduction in caspase-1 to GSDMD interaction at 1 uM pretreated with LPS for 3 hrs followed by compound addition in presence of nigericin by immunoprecipitation analysis", "format": "functional, cell-based"}, "BMDM": {"system": "BMDM", "experiment": "Effect on pro caspase-11 expression in mouse BMDM cells at 0.5 to 2 uM pretreated with pam3CSK4 for 3 hrs followed by compound addition for 30 mins prior to cytosolic LPS stimulation for 16 hrs by ELISA", "format": "functional, cell-based", "settings": "dose 0.5-2 µM, time 16.5 hrs"}, "[9]": {"target": "NACHT, LRR and PYD domains-containing protein 3 (Mus musculus) (UniProt Q8R4B8)", "experiment": "Inhibition of NLRP3 inflammasome activation in LPS primed Casp1 knockout mouse BMDM cells transfected with caspase-1 C285A/C397A double mutant assessed as reduction in IL-1beta release at 2 uM preincubated for 30 mins followed by nigericin stimulation", "format": "cell-based"}, "THP-1 [10]": {"system": "THP-1", "experiment": "Effect on pro-1L-1beta protein expression in LPS/MSU stimulated human THP-1 cells supernatant by Western blotting analysis", "format": "functional, cell-based"}, "[11]": {"target": "NACHT, LRR and PYD domains-containing protein 3 (Mus musculus) (UniProt Q8R4B8)", "experiment": "Inhibition of NLRP3 inflammasome activation in mouse J774.A1 cells assessed as reduction in TNF-alpha release at 0.5 to 2 uM preincubated for 30 mins followed by LPS stimulation for 6 hrs", "format": "cell-based", "settings": "dose 0.5-2 µM, time 6.5 hrs"}, "Mus musculus [12]": {"system": "Mus musculus", "experiment": "(§1) Anti-inflammatory activity in MSU/C18:0 free fatty acid induced Kunming mouse model of gouty arthritis assessed as reduction p20 expression at 5 to 20 mg/kg, ip preadministered with compound for 30 mins followed by MSU/C18:0 free fatty acid injection and measured after 24 hrs by Western blotting analysis", "format": "functional, organism-based", "settings": "dose 5-20 mg/kg, time 24.5 hrs"}, "J774.A1 [13]": {"system": "J774.A1", "experiment": "Effect on ASC oligomerization in mouse J774.A1 cells at 2 uM pretreated with LPS for 3 hrs prior to compound addition followed by nigericin stimulation", "format": "functional, cell-based"}, "Mus musculus [14]": {"system": "Mus musculus", "experiment": "as §1, with “effect on pro-caspase-1” for “reduction p20”", "format": "functional, organism-based", "settings": "dose 5-20 mg/kg, time 24.5 hrs"}, "[15]": {"target": "NACHT, LRR and PYD domains-containing protein 3 (Mus musculus) (UniProt Q8R4B8)", "experiment": "Inhibition of NLRP3 inflammasome activation in LPS primed Casp1 knockout mouse BMDM cells transfected with caspase-1 C395A mutant assessed as reduction in IL-1beta release at 2 uM preincubated for 30 mins followed by nigericin stimulation", "format": "cell-based"}, "Mus musculus [16]": {"system": "Mus musculus", "experiment": "Anti-inflammatory activity in MSU/C18:0 free fatty acid induced ip dosed Casp1 knockout Kunming mouse model of gouty arthritis assessed as reduction in foot swelling preadministered with compound for 30 mins followed by MSU/C18:0 free fatty acid injection and measured after 24 hrs", "format": "functional, organism-based", "settings": "time 24.5 hrs"}, "Caspase-1 (Homo sapiens) [17]": {"target": "T1, Caspase-1 (Homo sapiens)", "experiment": "Inhibition of recombinant human caspase-1 expressed in Escherichia coli BL21 cells at 5 to 50 uM using […] as substrate incubated for 30 mins", "settings": "dose 5-50 µM"}, "[18]": {"experiment": "Acute toxicity in Kunming mouse assessed as change in LDH level at 100 mg/kg, ip administered for 14 days", "format": "organism-based", "settings": "in vivo, 336 h, time 14 day"}, "J774.A1 [19]": {"system": "J774.A1", "experiment": "Downregulation of p65 phosphorylation in mouse J774.A1 cells at 0.5 to 2 uM preincubated for 30 mins followed by LPS addition and measured after 2 hrs by Western blotting analysis", "format": "functional, cell-based", "settings": "dose 0.5-2 µM, time 2.5 hrs"}, "[20]": {"experiment": "Acute toxicity in Kunming mouse assessed as change in ALT level at 100 mg/kg, ip administered for 14 days", "format": "organism-based", "settings": "in vivo, 336 h, time 14 day"}, "[21]": {"experiment": "Tmax in rat at 10 mg/kg, iv", "format": "ADME, organism-based", "settings": "in vivo"}, "THP-1 [22]": {"system": "THP-1", "experiment": "Effect on pro caspase-5 expression in human THP-1 cells at 2 uM pretreated with pam3CSK4 for 3 hrs followed by compound addition for 30 mins prior to cytosolic LPS stimulation for 16 hrs by ELISA", "format": "functional, cell-based", "settings": "time 16.5 hrs"}, "[23]": {"target": "NACHT, LRR and PYD domains-containing protein 3 (Mus musculus) (UniProt Q8R4B8)", "experiment": "Inhibition of NLRP3 inflammasome activation in LPS primed Casp1 knockout mouse BMDM cells transfected with caspase-1 C397A mutant assessed as reduction in IL-1beta release at 2 uM preincubated for 30 mins followed by nigericin stimulation", "format": "cell-based"}, "J774.A1 [24]": {"system": "J774.A1", "experiment": "Inhibition of pyroptosis in mouse J774.A1 cells assessed as reduction in number of propidium iodide positive cells at 0.5 to 2 uM pretreated with LPS for 3 hrs followed by compound addition in presence of nigericin by flow cytometry analysis", "format": "functional, cell-based", "settings": "dose 0.5-2 µM"}, "Mus musculus [25]": {"system": "Mus musculus", "experiment": "as §1, with “NLRP3” for “p20”", "format": "functional, organism-based", "settings": "dose 5-20 mg/kg, time 24.5 hrs"}, "THP-1 [26]": {"system": "THP-1", "experiment": "Inhibition of p20 fragment of caspase 1 protein expression in LPS/ATP stimulated human THP-1 cells supernatant by Western blotting analysis", "format": "functional, cell-based"}, "Mus musculus [27]": {"system": "Mus musculus", "experiment": "Anti-inflammatory activity in MSU/C18:0 free fatty acid induced ip dosed Casp1 knockout Kunming mouse model of gouty arthritis assessed as reduction in IL-beta production preadministered with compound for 30 mins followed by MSU/C18:0 free fatty acid injection and measured after 24 hrs by ELISA", "format": "functional, organism-based", "settings": "time 24.5 hrs"}}, "note": "Activity calls are given as the source filed them. No cut-off for these calls is given here.", "data": [{"smiles": "COc1ccc2c(c1)[C@]1(C=C[C@H](N=C=S)C[C@H]1C(=O)OC(C)(C)C)C(=O)N2C(=O)OCc1ccccc1", "values": [{"measurement": "inhibition", "setting": "J774.A1 [1]", "result": "Active"}, {"measurement": "Activity", "setting": "[2]", "result": "Active"}, {"measurement": "inhibition", "setting": "J774.A1 [3]", "result": "Active"}, {"measurement": "Activity", "setting": "J774.A1 [4]", "result": "Active"}, {"measurement": "Activity", "setting": "J774.A1 [5]", "result": "Dose-Dependent Effect"}, {"measurement": "inhibition", "setting": "[6]", "result": "Active"}, {"measurement": "Activity", "setting": "Caspase-1 (Homo sapiens) [7]", "result": 16, "unit": "%"}, {"measurement": "inhibition", "setting": "J774.A1 [8]", "result": "Active"}, {"measurement": "Activity", "setting": "BMDM", "result": "inactive"}, {"measurement": "inhibition", "setting": "[9]", "result": "inactive"}, {"measurement": "Activity", "setting": "THP-1 [10]", "result": "inactive"}, {"measurement": "inhibition", "setting": "[11]", "result": "Active"}, {"measurement": "Activity", "setting": "Mus musculus [12]", "result": "Active"}, {"measurement": "inhibition", "setting": "J774.A1 [13]", "result": "Active"}, {"measurement": "Activity", "setting": "Mus musculus [14]", "result": "inactive"}, {"measurement": "inhibition", "setting": "[15]", "result": "inactive"}, {"measurement": "Activity", "setting": "Mus musculus [16]", "result": "inactive"}, {"measurement": "inhibition (active/not active)", "setting": "Caspase-1 (Homo sapiens) [17]", "result": "Active"}, {"measurement": "Activity", "setting": "[18]", "result": "Non-Toxic"}, {"measurement": "Activity", "setting": "J774.A1 [19]", "result": "Active"}, {"measurement": "Activity", "setting": "[20]", "result": "Non-Toxic"}, {"measurement": "Tmax", "setting": "[21]", "result": 4.98, "unit": "min"}, {"measurement": "Activity", "setting": "THP-1 [22]", "result": "inactive"}, {"measurement": "inhibition", "setting": "[23]", "result": "inactive"}, {"measurement": "inhibition", "setting": "J774.A1 [24]", "result": "Active"}, {"measurement": "Activity", "setting": "Mus musculus [25]", "result": "Active"}, {"measurement": "inhibition", "setting": "THP-1 [26]", "result": "Active"}, {"measurement": "Activity", "setting": "Mus musculus [27]", "result": "inactive"}]}]}
